Source: patent US9050345B2, “Pyrrolotriazines as potassium ion channel inhibitors” (BRISTOL-MYERS SQUIBB COMPANY, priority 2013, dated 2015)

Biological target: T1, human KV 1.5 (IKur) (Homo sapiens, UniProt P22460)
T1 construct: expressed in transfected cells
Assay: block of IKur current in patch clamped L-929 cells expressing human Kv1.5
Format: cell-based
Conditions: patch clamped mammalian L-929 cells stably expressing human Kv1.5; for inhibition at 0.3 µM: L929, 0.3 μM, read-out: KV1_5% Inh L929 @0.3 μM
Excerpt: Assays to determine the degree of activity of a compound as an IKur inhibitor are well known in the art and are described in references such as J. Gen. Physiol., 101(4):513-543 (April 1993), and Br. J. Pharmacol., 115(2):267-274 (May 1995).
Synders, D. J. et al., “A rapidly activating and slowly inactivating potassium channel cloned from human heart: functional analysis after stable mammalian cell culture expression”, J. Gen. Physiol., 101:513-543 (1993). • 2. Zhou, Z. et al., “Block of HERG potassium channels by the antihistamine astemizole and its metabolites desmethylastemizole and norastemizole”, J. Cardiovasc. Electrophysiol., 10(6):836-843 (1999).

T1 sequence (P22460 whole entry): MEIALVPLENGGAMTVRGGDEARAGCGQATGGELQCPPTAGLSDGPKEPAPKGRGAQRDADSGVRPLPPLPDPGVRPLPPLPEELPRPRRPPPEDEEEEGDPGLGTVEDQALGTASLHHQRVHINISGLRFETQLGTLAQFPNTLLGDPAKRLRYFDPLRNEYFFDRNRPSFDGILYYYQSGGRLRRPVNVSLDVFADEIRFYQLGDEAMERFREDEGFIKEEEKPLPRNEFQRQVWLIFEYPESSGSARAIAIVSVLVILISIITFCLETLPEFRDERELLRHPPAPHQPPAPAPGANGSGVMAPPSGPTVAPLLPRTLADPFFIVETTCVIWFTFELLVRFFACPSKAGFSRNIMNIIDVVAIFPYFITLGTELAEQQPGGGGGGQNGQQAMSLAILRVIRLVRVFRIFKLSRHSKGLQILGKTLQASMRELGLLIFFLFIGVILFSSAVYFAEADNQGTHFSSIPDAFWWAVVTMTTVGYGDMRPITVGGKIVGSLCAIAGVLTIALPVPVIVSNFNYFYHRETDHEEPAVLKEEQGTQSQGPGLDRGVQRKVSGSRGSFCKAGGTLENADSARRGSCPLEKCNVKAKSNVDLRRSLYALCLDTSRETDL

Row | Molecule | inhibition at 0.3 µM [%] | KV1_5% Inh L929 @0.3 μM [%]
1 | CC(C)(O)c1cncc(-c2nc(NCc3ccccc3)c3c(-c4ccccc4)ccn3n2)c1 [Example 17, 2-(5-(4-(Benzylamino)-5-phenylpyrrolo[1,2-f][1,2,4]triazin-2-yl)pyridin-3-yl)propan-2-ol] | 92.4 | 
2 | CS(=O)(=O)Nc1cncc(-c2nc(NCC3CCCCC3)c3c(-c4ccccc4)ccn3n2)c1 [Example 75, N-(5-(4-(cyclohexylmethylamino)-5-phenylpyrrolo[1,2-f] [1,2,4]triazin-2-yl)pyridin-3-yl)methanesulfonamide] | 90.9 | 
3 | c1ccc(CNc2nc(-c3cncc(-c4nnn[nH]4)c3)nn3ccc(-c4ccccc4)c23)cc1 [Example 11, 2-(5-(1H-Tetrazol-5-yl)pyridin-3-yl)-N-benzyl-5-phenylpyrrolo[1,2-f][1,2,4]triazin-4-amine] | 93.4 | 
4 | CCCS(=O)(=O)Nc1cncc(-c2nc(NCc3ccccn3)c3c(-c4ccccc4)ccn3n2)c1 [Example 57, N-(5-(5-phenyl-4-(pyridin-2-ylmethylamino)pyrrolo[1,2-f][1,2,4]triazin-2-yl)pyridin-3-yl) propane-1-sulfonamide] | 95.5 | 
5 | NS(=O)(=O)c1cncc(-c2nc(NCc3c(F)cccc3F)c3c(-c4ccccc4)ccn3n2)c1 [Example 79, 5-(4-(2,6-difluorobenzylamino)-5-phenylpyrrolo [1,2-f][1,2,4]triazin-2-yl)pyridine-3-sulfonamide] | 96 | 
6 | COC(=O)C1CCCN1C(=O)c1cncc(-c2nc(NCc3ccccc3)c3c(-c4ccccc4)ccn3n2)c1 (stereo not drawn) [Example 22, Methyl 1-(5-(4-(benzylamino)-5-phenylpyrrolo[1,2-f][1,2,4]triazin-2-yl)nicotinoyl)pyrrolidine-2-carboxylate] | 95.1 | 
7 | NS(=O)(=O)CCc1cncc(-c2nc(NCc3ccccn3)c3c(-c4ccccc4)ccn3n2)c1 [Example 38, 2-(5-(5-Phenyl-4-(pyridin-2-ylmethylamino)pyrrolo[1,2-f][1,2,4]triazin-2-yl)pyridin-3-yl)ethanesulfonamide] |  | 97.45
8 | 4-(4-(benzylamino)-5- phenylpyrrolo [1,2-f][1,2,4] triazin-2-yl) picolinic acid [Example 95] |  | 98.08
9 | OCc1cncc(-c2nc(NCc3ccccc3)c3c(-c4ccccc4)ccn3n2)c1 [Example 20, (5-(4-(Benzylamino)-5-phenylpyrrolo[1,2-f][1,2,4]triazin-2-yl)pyridin-3-yl)methanol] | 96.6 | 
10 | NC(=O)CC(=O)Nc1cncc(-c2nc(NCc3ccccc3)c3c(-c4ccccc4)ccn3n2)c1 [Example 4, N1-(5-(4-(Benzylamino)-5-phenylpyrrolo[1,2-f][1,2,4]triazin-2-yl)pyridin-3-yl)malonamide] | 97.3 | 
11 | O=C(NCC(O)CO)c1cncc(-c2nc(NCc3ccccc3)c3c(-c4ccccc4)ccn3n2)c1 (stereo not drawn) [Example 97, 5-(4-(benzylamino)-5-phenylpyrrolo [1,2-f][1,2,4]triazin-2-yl)-N-(2,3-dihydroxypropyl) nicotinamide] |  | 96.86
12 | Cc1ncc(-c2nc(NCc3ccccn3)c3c(-c4ccccc4)ccn3n2)cc1N [Example 71, 2-(5-amino-6-methylpyridin-3-yl)-5-phenyl-N-(pyridin-2-ylmethyl)pyrrolo[1,2-f] [1,2,4]triazin-4-amine] | 89.1 | 
13 | NC(=O)CCC(=O)Nc1cncc(-c2nc(NCc3ccccn3)c3c(-c4ccccc4)ccn3n2)c1 [Example 30, N1-(5-(5-Phenyl-4-(pyridin-2-ylmethylamino)pyrrolo[1,2-f][1,2,4]triazin-2-yl)pyridin-3-yl)succinamide] | 96.3 | 
14 | O=C(O)c1ccc(-c2nc(NCc3ccccc3)c3c(-c4ccccc4)ccn3n2)cn1 [Example 82, 5-(4-(benzylamino)-5-phenylpyrrolo [1,2-f][1,2,4]triazin-2-yl) picolinic acid] | 17.6 | 
15 | NC(=O)CC(=O)Nc1cncc(-c2nc(NCc3ccccn3)c3c(-c4ccccc4)ccn3n2)c1 [Example 52, N1-(5-(5-phenyl-4-(pyridin-2-ylmethylamino)pyrrolo[1,2-f][1,2,4]triazin-2-yl)pyridin-3-yl)malonamide] | 96.1 | 
16 | c1ccc(-c2ccn3nc(-c4cn[nH]c4)nc(NCc4ccccn4)c23)cc1 [Example 65, 5-phenyl-2-(1H-pyrazol-4-yl)-N-(pyridin-2-ylmethyl) pyrrolo[1,2-f][1,2,4] triazin-4-amine] | 97.7 | 
17 | NS(=O)(=O)c1cc(-c2nc(NCc3ccccn3)c3c(-c4ccccc4)ccn3n2)cnc1C(F)F [Example 39, 2-(Difluoromethyl)-5-(5-phenyl-4-(pyridin-2-ylmethylamino)pyrrolo[1,2-f][1,2,4]triazin-2-yl)pyridine-3-sulfonamide] | 97.1 | 
18 | COc1ncc(-c2nc(NCc3ccccc3)c3c(-c4ccccc4)ccn3n2)cc1S(=O)(=O)NC(C)(C)C [Example 93, 5-(4-(benzylamino)-5-phenylpyrrolo [1,2-f][1,2,4]triazin-2-yl)-N-tert-butyl-2-methoxypyridine-3-sulfonamide] | 41 | 
19 | CCOC(=O)CS(=O)(=O)Nc1cccc(-c2nc(NCc3ccccn3)c3c(-c4ccccc4)ccn3n2)c1 [Example 60, ethyl 2-(N-(3-(5-phenyl-4-(pyridin-2-ylmethylamino)pyrrolo[1,2-f][1,2,4]triazin-2-yl)phenyl)sulfamoyl)acetate] | 97.6 | 
20 | CC(=O)NC1(c2nc(NCc3ccccn3)c3c(-c4ccccc4)ccn3n2)CC1 [Example 36, N-(1-(5-Phenyl-4-(pyridin-2-ylmethylamino)pyrrolo[1,2-f][1,2,4]triazin-2-yl)cyclopropyl)acetamide] | 46 | 
21 | Nc1cncc(-c2nc(NCC3CCCCC3)c3c(-c4ccccc4)ccn3n2)c1 [Example 73, 2-(5-aminopyridin-3-yl)-N-(cyclohexylmethyl)-5-phenylpyrrolo[1,2-f] [1,2,4] triazin-4-amine] | 88.3 | 

Continued, values first:

Row | inhibition at 0.3 µM [%] | KV1_5% Inh L929 @0.3 μM [%] | Molecule
22 | 99 |  | NC(=O)c1ccc(-c2nc(NCc3ccccn3)c3c(-c4ccccc4)ccn3n2)cc1 [Example 112, 4-(5-phenyl-4-(pyridin-2-ylmethylamino)pyrrolo[1,2-f][1,2,4]triazin-2-yl)benzamide]
23 | 98.7 |  | NS(=O)(=O)c1cncc(-c2nc(NCc3ccccn3)c3c(-c4ccccc4Cl)ccn3n2)c1 [Example 136, 5-(5-(2-chlorophenyl)-4-((pyridin-2-ylmethyl)amino)pyrrolo [2,1-f][1,2,4]triazin-2-yl)pyridine-3-sulfonamide]
24 | 89.8 |  | COC(=O)c1ccccc1CNc1nc(-c2cncc(S(N)(=O)=O)c2)nn2ccc(-c3ccccc3)c12 [Example 167, methyl 2-(((5-phenyl-2-(5-sulfamoylpyridin-3-yl)pyrrolo[2,1-f][1,2,4]triazin-4-yl)amino)methyl) benzoate]
25 | 36.9 |  | CC(=O)Nc1ccccc1CNc1nc(-c2cncc(S(N)(=O)=O)c2)nn2ccc(-c3ccccc3)c12 [Example 180, N-(2-(((5-phenyl-2-(5-sulfamoylpyridin-3-yl)pyrrolo[2,1-f][1,2,4]triazin-4-yl)amino)methyl)phenyl)acetamide]
26 | 81.4 |  | CS(=O)(=O)Nc1cncc(-c2nc(NCc3ccccn3)c3c(-c4ccc(F)cc4)ccn3n2)c1 [Example 110, N-(5-(5-(4-fluorophenyl)-4-(pyridin-2-ylmethylamino)pyrrolo[1,2-f] [1,2,4]triazin-2-yl)pyridin-3-yl) methanesulfonamide]
27 | 96.4 |  | NS(=O)(=O)c1cncc(-c2nc(NC3CCCc4cccnc43)c3c(-c4ccccc4)ccn3n2)c1 (stereo not drawn) [Example 170, 5-(5-phenyl-4-((5,6,7,8-tetrahydroquinolin-8-yl)amino)pyrrolo[2,1-f] [1,2,4]triazin-2-yl)pyridine-3-sulfonamide]
28 | 88.7 |  | COc1ccc(CNC(=O)c2nc(NCc3ccccc3)c3c(-c4ccccc4)ccn3n2)c(OC)c1 [Example 125, 4-(benzylamino)-N-(2,4-dimethoxybenzyl)-5-phenylpyrrolo [1,2-f][1,2,4] triazine-2-carboxamide]
29 | 89.5 |  | NS(=O)(=O)c1cncc(-c2nc(NCc3cnccn3)c3c(-c4ccccc4)ccn3n2)n1 [Example 154, 6-(5-phenyl-4-((pyrazin-2-ylmethyl)amino)pyrrolo [2,1-f][1,2,4]triazin-2-yl)pyrazine-2-sulfonamide]
30 | 96 |  | COC(=O)Nc1ccccc1CNc1nc(-c2cncc(S(N)(=O)=O)c2)nn2ccc(-c3ccccc3)c12 [Example 181, methyl (2-(((5-phenyl-2-(5-sulfamoylpyridin-3-yl)pyrrolo[2,1-f][1,2,4]triazin-4-yl)amino)methyl)phenyl)carbamate]
31 |  | 97.64 | NS(=O)(=O)c1cncc(-c2nc(NC3CCCc4cccnc43)c3c(-c4ccccc4)ccn3n2)c1 (stereo not drawn) [Example 171, 5-(5-phenyl-4-((5,6,7,8-tetrahydroquinolin-8-yl)amino)pyrrolo[2,1-f] [1,2,4]triazin-2-yl)pyridine-3-sulfonamide]
32 | 98 |  | NS(=O)(=O)c1cncc(-c2nc(NCc3ccccn3)c3c(-c4ccccc4F)ccn3n2)c1 [Example 166, 5-(5-(2-fluorophenyl)-4-((pyridin-2-ylmethyl)amino)pyrrolo [2,1-f][1,2,4]triazin-2-yl)pyridine-3-sulfonamide]
33 | 87.7 |  | N#Cc1cccc(F)c1CNc1nc(-c2cncc(S(N)(=O)=O)c2)nn2ccc(-c3ccccc3)c12 [Example 141, 5-(4-((2-cyano-6-fluorobenzyl)amino)-5-phenylpyrrolo [2,1-f][1,2,4]triazin-2-yl)pyridine-3-sulfonamide]
